Assay results published in patent publication US20220104492A1, “PYRIDAZINIUM COMPOUNDS FOR USE IN A METHOD OF CONTROLLING UNWANTED PLANT GROWTH” (SYNGENTA CROP PROTECTION AG, priority 2019, published 2022).

Tests used:
Test in all cases: Post-emergence efficacy (glasshouse, spray application)
Format in all cases: in vivo
[1] = test system: Chenopodium album (CHEAL); conditions: 312 h, Application rate 500 g/Ha, evaluated after 13 days, 100=total damage to plant, 0=no damage to plant, read-out: Control of weed species after post-emergence application, CHEAL
Method: (§1) Seeds of a variety of test species were sown in standard soil in pots. After cultivation for 14 days (post-emergence) under controlled conditions in a glasshouse (at 24/16° C., day/night; 14 hours light; 65 humidity), the plants were sprayed with an aqueous spray solution derived from the dissolution of the technical active ingredient formula (I) in a small amount of acetone and a special solvent and emulsifier mixture referred to as IF50 (11.12% Emulsogen EL360 TM+44.44% N-methylpyrrolidone+44.44% Dowanol DPM glycol ether), to create a 50 g/l solution which was then diluted to required concentration using a solution of 0.25% or 1% Empicol ESC70 (Sodium lauryl ether sulphate)+1% ammonium sulphate in water as diluent.
(§2) The test plants were then grown in a glasshouse under controlled conditions (at 24/16° C., day/night; 14 hours light; 65% humidity) and watered twice daily. After 13 days the test was evaluated (100=total damage to plant; 0=no damage to plant).
(§3) Ipomoea hederacea (IPOHE), Euphorbia heterophylla (EPHHL), Chenopodium album (CHEAL), Amaranthus palmeri (AMAPA), Lolium perenne (LOLPE), Digitaria sanguinalis (DIGSA), Eleusine indica (ELEIN), Echinochloa crus-galli (ECHCG), Setaria faberi (SETFA)

Eleusine indica (ELEIN) = conditions: 312 h, Application rate 500 g/Ha, evaluated after 13 days, 100=total damage to plant, 0=no damage to plant, read-out: Control of weed species after post-emergence application, ELEIN
Method: as §1, §2, §3

[2] = test system: Ipomoea hederacea (IPOHE); conditions: 312 h, Application rate 500 g/Ha, evaluated after 13 days, 100=total damage to plant, 0=no damage to plant, read-out: Control of weed species after post-emergence application, IPOHE
Method: as §1, §2, §3

[3] = test system: Euphorbia heterophylla (EPHHL); conditions: 312 h, Application rate 500 g/Ha, evaluated after 13 days, 100=total damage to plant, 0=no damage to plant, read-out: Control of weed species after post-emergence application, EPHHL
Method: as §1, §2, §3

[4] = test system: Digitaria sanguinalis (DIGSA); conditions: 312 h, Application rate 500 g/Ha, evaluated after 13 days, 100=total damage to plant, 0=no damage to plant, read-out: Control of weed species after post-emergence application, DIGSA
Method: as §1, §2, §3

Setaria faberi (SETFA) = conditions: 312 h, Application rate 500 g/Ha, evaluated after 13 days, 100=total damage to plant, 0=no damage to plant, read-out: Control of weed species after post-emergence application, SETFA
Method: as §1, §2, §3

[5] = test system: Amaranthus palmeri (AMAPA); conditions: 312 h, Application rate 500 g/Ha, evaluated after 13 days, 100=total damage to plant, 0=no damage to plant, read-out: Control of weed species after post-emergence application, AMAPA
Method: as §1, §2, §3

Lolium perenne (LOLPE) = conditions: 312 h, Application rate 500 g/Ha, evaluated after 13 days, 100=total damage to plant, 0=no damage to plant, read-out: Control of weed species after post-emergence application, LOLPE
Method: as §1, §2, §3

[6] = test system: Echinochloa crus-galli (ECHCG); conditions: 312 h, Application rate 500 g/Ha, evaluated after 13 days, 100=total damage to plant, 0=no damage to plant, read-out: Control of weed species after post-emergence application, ECHCG
Method: as §1, §2, §3

Structure (SMILES) | pest or weed control at 500 g/ha [1] [%] | pest or weed control at 500 g/ha (Eleusine indica (ELEIN)) [%] | pest or weed control at 500 g/ha [2] [%] | pest or weed control at 500 g/ha [3] [%] | pest or weed control at 500 g/ha [4] [%] | pest or weed control at 500 g/ha (Setaria faberi (SETFA)) [%] | pest or weed control at 500 g/ha [5] [%] | pest or weed control at 500 g/ha (Lolium perenne (LOLPE)) [%] | pest or weed control at 500 g/ha [6] [%]
O=C(C[n+]1ccc(-c2ncccn2)cn1)NC(Cc1ccccc1)C(=O)O (stereo not drawn) [Compound A11] | 50 | 90 | 20 | 90 | 90 | 50 | 100 | 20 | 70
O=C(O)CSC[n+]1ccc(-c2ncccn2)cn1 [Compound A33, 2-[(4-pyrimidin-2-ylpyridazin-1-ium-1-yl)methylsulfanyl]acetic acid 2,2,2-trifluoroacetate] | 100 | 100 | 40 | 100 | 100 | 90 | 100 | 70 | 100
CC(C)(NC(=O)C[n+]1ccc(-c2ncccn2)cn1)C(=O)O [Compound A37] | 50 | 70 | 40 | 80 | 70 | 80 | 100 | 70 | 40
NC(=O)CC(NC(=O)C[n+]1ccc(-c2ncccn2)cn1)C(=O)O (stereo not drawn) [Compound A7] | 60 | 30 | 0 | 30 | 40 | 40 | 10 | 0 | 30
O=C(O)CNC(=O)CC[n+]1ccc(-c2ccncn2)cn1 [Compound A23] | 70 | 100 | 100 | 90 | 100 | 60 | 100 | 40 | 60
CC(NC(=O)C[n+]1ccc(-c2ncccn2)cn1)C(=O)O (stereo not drawn) [Compound A12] | 100 | 100 | 70 | 100 | 90 | 70 | 100 | 50 | 70
O=C(O)CCC(=O)C[n+]1ccc(-c2ncccn2)cn1 [Compound A9, 4-oxo-5-(4-pyrimidin-2-ylpyridazin-1-ium-1-yl)pentanoic acid chloride] | 70 | 70 | 40 | 70 | 50 | 30 | 70 | 0 | 70
CC(NC(=O)CC[n+]1ccc(-c2ncccn2)cn1)C(=O)O (stereo not drawn) [Compound A25] | 100 | 100 | 40 | 100 | 100 | 90 | 100 | 70 | 90
O=C(O)CNC(=O)CC[n+]1ccc(-c2ncccn2)cn1 [Compound A14] | 90 | 100 | 100 | 100 | 100 | 100 | 100 | 100 | 100
O=C(O)COC[n+]1ccc(-c2ncccn2)cn1 [Compound A39] | 80 | 60 | 80 | 90 | 100 | 70 | 100 | 70 | 80
CS(=O)(=O)N(CC[n+]1ccc(-c2ncccn2)cn1)CC(=O)O [Compound A19, 2-[methylsulfonyl-[2-(4-pyrimidin-2-ylpyridazin-1-ium-1-yl)ethyl]amino]acetic acid 2,2,2-trifluoroacetate] | 90 | 100 | 70 | 80 | 70 | 70 | 100 | 30 | 40
O=C(O)CNC(=O)C[n+]1ccc(-c2ccccn2)cn1 [Compound A26] | 100 | 80 | 40 | 100 | 70 | 80 | 100 | 40 | 90
O=C(O)CS(=O)(=O)CC[n+]1ccc(-c2ncccn2)cn1 [Compound A15] | 20 | 70 | 10 | 70 | 60 | 50 | 70 | 10 | 20
CN(CC(=O)O)C(=O)CC[n+]1ccc(-c2ncccn2)cn1 [Compound A24] | 90 | 50 | 40 | 90 | 100 | 70 | 90 | 30 | 40
CN(CC(=O)O)C(=O)C[n+]1ccc(-c2ccccn2)cn1 [Compound A34] | 0 | 20 | 40 | 50 | 20 | 40 | 90 | 10 | 30
CN(CC(=O)O)C(=O)C[n+]1ccc(-c2ncccn2)cn1 [Compound A8, 2-[methyl-[2-(4-pyrimidin-2-ylpyridazin-1-ium-1-yl)acetyl]amino]acetic acid 2,2,2-trifluoroacetate] | 100 | 90 | 60 | 100 | 70 | 70 | 100 | 40 | 80
O=C(O)CNC(=O)CNC(=O)C[n+]1ccc(-c2ncccn2)cn1 [Compound A10] | 60 | 90 | 40 | 90 | 80 | 80 | 90 | 40 | 70
